Key:
[1] = test system: ODN3/ODN4 duplex (X = ^Am2dA, Y = T), dye-labelled (DNA, duplex, ^Am2dA (N6-adenosine bearing 1-aminoadamantane via C2 linker) at 6 of strand 1) CTCAGAGTAAGG/CCTTACTCTGAG; assay: FAM/Dabcyl fluorescence time course, kout/kin; conditions: Na+ (150 mM NaCl, sodium phosphate), apparent, host binds guest tethered to DNA, duplex dissociates, 10 mM phosphate pH 7.0, 37 °C
[2] = test system: ODN1/ODN2 duplex (X = ^Am2dA, Y = T) (DNA, duplex, ^Am2dA (N6-adenosine bearing 1-aminoadamantane via C2 linker) at 6 of strand 1) CTCAGAGTAAGG/CCTTACTCTGAG; assay: UV melting; conditions: Na+ (150 mM NaCl, sodium phosphate); destabilisation (Tm lowered by CB[7]); duplex 2 μM, CB[7] 4 μM; 10 mM phosphate pH 7.0
[3] = test system: ODN1/ODN2 duplex (X = ^Am3dA, Y = T) (DNA, duplex, ^Am3dA (N6-adenosine bearing 1-aminoadamantane via C3 linker) at 6 of strand 1) CTCAGAGTAAGG/CCTTACTCTGAG; assay: UV melting; conditions: Na+ (150 mM NaCl, sodium phosphate); destabilisation (Tm lowered by CB[7]); duplex 2 μM, CB[7] 4 μM; 10 mM phosphate pH 7.0
[4] = test system: ODN1/ODN2 duplex (X = ^Am4dA, Y = T) (DNA, duplex, ^Am4dA (N6-adenosine bearing 1-aminoadamantane via C4 linker) at 6 of strand 1) CTCAGAGTAAGG/CCTTACTCTGAG; assay: UV melting; conditions: Na+ (150 mM NaCl, sodium phosphate); destabilisation (Tm lowered by CB[7]); duplex 2 μM, CB[7] 4 μM; 10 mM phosphate pH 7.0
[5] = test system: ODN1/ODN2 duplex (X = A, Y = T) (DNA, duplex) CTCAGAGTAAGG/CCTTACTCTGAG; assay: UV melting; conditions: Na+ (150 mM NaCl, sodium phosphate); no significant Tm change; duplex 2 μM, CB[7] 4 μM; 10 mM phosphate pH 7.0

For `O=C1N2CN3C(=O)N4CN5C(=O)N6CN7C(=O)N8CN9C(=O)N%10CN%11C(=O)N%12CN%13C(=O)N%14CN1C1C2N2CN%15C(=O)N(CN%16C(=O)N(CN%17C(=O)N(CN%18C(=O)N(CN%19C(=O)N(CN%20C(=O)N(CN1C2=O)C%14C%13%20)C%12C%11%19)C%10C9%18)C8C7%17)C6C5%16)C4C3%15` (centres unmarked), the Kd [1] was 1.0 × 10^–9 M, the ΔTm [2] was 20.4 °C and the ΔTm [3] was 3.6 °C. The ΔTm [4] was 4.7 °C and the binding [5] was “no”.
